Values quoted from earlier work, collected in patent US11304932B2, “Diaryl and arylheteroaryl urea derivatives as modulators of the 5-HT2A serotonin receptor useful for the prophylaxis and treatment of hallucinations associated with a neurodegenerative disease” (Axovant Sciences GmbH, priority 2015, dated 2022).

Assays:
[1] = clozapine at low dose

COc1ccc(NC(=O)Nc2ccc(F)cc2F)cc1-c1c(Br)cnn1C [Nelotanserin, 1-[3-(4-bromo-2-methyl-2H-pyrazol-3-yl)-4-methoxy-phenyl]-3-(2,4-difluoro-phenyl)-urea]
tolerability and PK/PD profile (daily dose of 80 mg, studies completed to date): favorable tolerability and PK/PD profile | safety and tolerability profile (previous clinical studies to date, proposed dose range): acceptable safety and tolerability profile

CC(C)COc1ccc(CNC(=O)N(Cc2ccc(F)cc2)C2CCN(C)CC2)cc1 [pimavanserin, N-(4-fluorophenylmethyl)-N-(1-methylpiperidin-4-yl)-N′-(4-(2-methylpropyloxy)phenylmethyl)carbamide]
efficacy in psychotic symptoms associated with Parkinson's Disease [1]: demonstrate efficacy
